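Cultured in 96-well plates, cells were exposed to test compound for 48 hours across five concentrations. TGI: total growth inhibition.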
Experiments:
Assay in all cases: DTP human tumour cell line panel, 48 h
OVCAR-3 ovarian = test system: OVCAR-3 ovarian
BT-549 breast = test system: BT-549 breast
SF-295 CNS = test system: SF-295 CNS
RPMI-8226 leukemia = test system: RPMI-8226 leukemia
MALME-3M melanoma = test system: MALME-3M melanoma
SW-620 colon = test system: SW-620 colon
786-0 renal = test system: 786-0 renal
SNB-78 CNS = test system: SNB-78 CNS
M14 melanoma = test system: M14 melanoma
K-562 leukemia = test system: K-562 leukemia
KM20L2 colon = test system: KM20L2 colon
RXF 393 renal = test system: RXF 393 renal
HL-60(TB) leukemia = test system: HL-60(TB) leukemia
DU-145 prostate = test system: DU-145 prostate
SF-539 CNS = test system: SF-539 CNS
SR leukemia = test system: SR leukemia
HCT-15 colon = test system: HCT-15 colon
DMS 114 small cell lung = test system: DMS 114 small cell lung
ACHN renal = test system: ACHN renal
NCI-H23 lung = test system: NCI-H23 lung
UACC-257 melanoma = test system: UACC-257 melanoma
M19-MEL melanoma = test system: M19-MEL melanoma
NCI-H460 lung = test system: NCI-H460 lung
OVCAR-4 ovarian = test system: OVCAR-4 ovarian
OVCAR-5 ovarian = test system: OVCAR-5 ovarian
NCI-H522 lung = test system: NCI-H522 lung
SNB-19 CNS = test system: SNB-19 CNS
UACC-62 melanoma = test system: UACC-62 melanoma
DLD-1 colon = test system: DLD-1 colon
KM12 colon = test system: KM12 colon
HCC-2998 colon = test system: HCC-2998 colon
A498 renal = test system: A498 renal
CAKI-1 renal = test system: CAKI-1 renal
MOLT-4 leukemia = test system: MOLT-4 leukemia
U251 CNS = test system: U251 CNS
T-47D breast = test system: T-47D breast
COLO 205 colon = test system: COLO 205 colon
SK-MEL-28 melanoma = test system: SK-MEL-28 melanoma
A549 NSCLC = test system: A549 NSCLC
MCF7 breast = test system: MCF7 breast
NCI-H226 lung = test system: NCI-H226 lung
TK-10 renal = test system: TK-10 renal
UO-31 renal = test system: UO-31 renal
HOP-92 NSCLC = test system: HOP-92 NSCLC
MDA-MB-231 breast = test system: MDA-MB-231 breast
LXFL 529 NSCLC = test system: LXFL 529 NSCLC
SN12C renal = test system: SN12C renal
SK-MEL-5 melanoma = test system: SK-MEL-5 melanoma
HS 578T breast = test system: HS 578T breast
HT29 colon = test system: HT29 colon
IGROV1 ovarian = test system: IGROV1 ovarian
EKVX NSCLC = test system: EKVX NSCLC
MDA-MB-435 = test system: MDA-MB-435
CCRF-CEM leukemia = test system: CCRF-CEM leukemia
LOX IMVI melanoma = test system: LOX IMVI melanoma
SF-268 CNS = test system: SF-268 CNS
HOP-62 NSCLC = test system: HOP-62 NSCLC
HCT-116 colon = test system: HCT-116 colon
HOP-18 NSCLC = test system: HOP-18 NSCLC
OVCAR-8 ovarian = test system: OVCAR-8 ovarian
SNB-75 CNS = test system: SNB-75 CNS

SMILES: COc1cc2c(c(OC)c1OC)-c1ccc(OC)c(=O)cc1C(NC(=O)c1ccc(N=[N+]=[N-])cc1)CC2 (stereo unspecified)
- TGI (OVCAR-3 ovarian): 0.0555 µM
- TGI (BT-549 breast): > 100 µM
- TGI (SF-295 CNS): 0.0582 µM
- TGI (RPMI-8226 leukemia): 4.41 µM
- TGI (MALME-3M melanoma): > 100 µM
- TGI (SW-620 colon): > 100 µM
- TGI (786-0 renal): > 100 µM
- TGI (SNB-78 CNS): > 100 µM
- TGI (M14 melanoma): 31.2 µM
- TGI (K-562 leukemia): > 39.2 µM
- TGI (KM20L2 colon): 0.0351 µM
- TGI (RXF 393 renal): 0.061 µM
- TGI (HL-60(TB) leukemia): 0.441 µM
- TGI (DU-145 prostate): 0.439 µM
- TGI (SF-539 CNS): 0.0611 µM
- TGI (SR leukemia): > 100 µM
- TGI (HCT-15 colon): 0.561 µM
- TGI (DMS 114 small cell lung): 0.0656 µM
- TGI (ACHN renal): > 100 µM
- TGI (NCI-H23 lung): > 100 µM
- TGI (UACC-257 melanoma): > 100 µM
- TGI (M19-MEL melanoma): > 73.2 µM
- TGI (NCI-H460 lung): 0.0613 µM
- TGI (OVCAR-4 ovarian): > 100 µM
- TGI (OVCAR-5 ovarian): > 100 µM
- TGI (NCI-H522 lung): 0.0387 µM
- TGI (SNB-19 CNS): > 100 µM
- TGI (UACC-62 melanoma): 31.1 µM
- TGI (DLD-1 colon): > 100 µM
- TGI (KM12 colon): 0.0786 µM
- TGI (HCC-2998 colon): 0.0513 µM
- TGI (A498 renal): 0.0847 µM
- TGI (CAKI-1 renal): 0.243 µM
- TGI (MOLT-4 leukemia): 9.82 µM
- TGI (U251 CNS): 4 µM
- TGI (T-47D breast): > 100 µM
- TGI (COLO 205 colon): 0.0627 µM
- TGI (SK-MEL-28 melanoma): > 100 µM
- TGI (A549 NSCLC): > 100 µM
- TGI (MCF7 breast): > 100 µM
- TGI (NCI-H226 lung): 3.78 µM
- TGI (TK-10 renal): > 100 µM
- TGI (UO-31 renal): > 95.7 µM
- TGI (HOP-92 NSCLC): 18.9 µM
- TGI (MDA-MB-231 breast): 12.5 µM
- TGI (LXFL 529 NSCLC): > 47.2 µM
- TGI (SN12C renal): > 41.9 µM
- TGI (SK-MEL-5 melanoma): 1.95 µM
- TGI (HS 578T breast): > 100 µM
- TGI (HT29 colon): 0.208 µM
- TGI (IGROV1 ovarian): > 100 µM
- TGI (EKVX NSCLC): > 100 µM
- TGI (MDA-MB-435): 0.0473 µM
- TGI (CCRF-CEM leukemia): > 24.5 µM
- TGI (LOX IMVI melanoma): 24.9 µM
- TGI (SF-268 CNS): > 100 µM
- TGI (HOP-62 NSCLC): > 95.1 µM
- TGI (HCT-116 colon): 18.2 µM
- TGI (HOP-18 NSCLC): > 100 µM
- TGI (OVCAR-8 ovarian): 1.02 µM
- TGI (SNB-75 CNS): > 90.8 µM

From PubChem BioAssay (NCI)
